The values below come from patent US20080194574A1, “Pyrazine Derivatives As Effective Compounds Against Infectious Diseases” (AXXIMA PHARMACEUTICALS AG, priority 2003, published 2008).

A value given as a limit tells only on which side of the number the result lay.

For one assay, the target named is T1, viral kinase pUL-97 (Human cytomegalovirus, UniProt P16788).
T1 construct: The pUL-97 gene was cloned into a baculovirus vector; GST (glutathione S-transferase) (N); made in house; host or cells: Sf9 insect cells, baculovirus
T1 sequence (P16788 whole entry): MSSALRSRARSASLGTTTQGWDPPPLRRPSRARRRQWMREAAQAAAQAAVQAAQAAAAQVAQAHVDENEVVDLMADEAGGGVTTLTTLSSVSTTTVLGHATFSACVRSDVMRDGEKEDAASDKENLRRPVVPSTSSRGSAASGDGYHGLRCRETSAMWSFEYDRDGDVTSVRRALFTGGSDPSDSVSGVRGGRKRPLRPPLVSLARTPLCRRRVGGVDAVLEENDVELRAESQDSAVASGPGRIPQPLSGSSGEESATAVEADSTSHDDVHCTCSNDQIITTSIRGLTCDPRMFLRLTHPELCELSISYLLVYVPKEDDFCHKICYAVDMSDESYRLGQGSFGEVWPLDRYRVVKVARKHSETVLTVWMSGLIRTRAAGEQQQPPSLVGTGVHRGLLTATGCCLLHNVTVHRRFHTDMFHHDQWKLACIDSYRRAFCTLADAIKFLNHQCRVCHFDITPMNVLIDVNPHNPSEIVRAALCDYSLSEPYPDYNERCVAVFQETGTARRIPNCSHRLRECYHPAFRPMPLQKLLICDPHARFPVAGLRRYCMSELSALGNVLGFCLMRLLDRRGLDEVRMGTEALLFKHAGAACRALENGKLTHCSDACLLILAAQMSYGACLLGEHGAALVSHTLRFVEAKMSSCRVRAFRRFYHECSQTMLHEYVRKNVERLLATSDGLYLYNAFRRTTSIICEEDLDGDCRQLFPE
In words: UL97 kinase assay on Immobilon plate. In kind it is biochemical. To be noted: inhibition of UL 97 kinase activity; class by IC50 / % inhibition at 10 μM or 100 μM; read-out: Activity Class [A, B, C]. The method, boiled down: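 GST-pUL97 from baculovirus-infected Sf9 cells phosphorylated myelin basic protein with ATP (3 μM in the added assay buffer) and γ-[33P]ATP in Tris-HCl pH 7.5 buffer with MnCl2 and DTT. Reaction ran 1 h at 30 °C with graded compound concentrations and was stopped with EDTA. 33P incorporation was measured by scintillation after filter capture and phosphoric acid washes.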
On to `OCc1ccc(-c2cncc(N3CCN(c4ccccn4)CC3)n2)cc1` [compound 351, [4-(4-Pyridin-2-yl-3,4,5,6-tetrahydro-2H-[1,2′]bipyrazinyl-6′-yl)-phenyl]-methanol], for which the IC50 lay within 1 to 10 µM. Same read-out and setting: in the case of `CSc1ccc(-c2cncc(N3CCN(c4ccc(Cl)c(Cl)c4)CC3)n2)cc1` [compound 372, 4-(3,4-Dichloro-phenyl)-6′-(4-methylsulfanyl-phenyl)-3,4,5,6-tetrahydro-2H-[1,2′]bipyrazinyl] it was 10 to 100 µM. Same read-out and setting: in the case of `COc1ccc(N2CCN(c3cncc(-c4ccccc4)n3)CC2)cc1` [compound 291, 4-(4-Methoxy-phenyl)-6′-phenyl-3,4,5,6-tetrahydro-2H-[1,2′]bipyrazinyl] it was 10 to 100 µM; in that of `FC(F)(F)c1ccc(-c2cncc(N3CCN(c4cnccn4)CC3)n2)cc1` [compound 345, 6-(4-Trifluoromethyl-phenyl)-2′,3′,5′,6′-tetrahydro-[2,1′;4′,2″]terpyrazine], 1 to 10 µM.

Consider `Cc1cc(C)cc(-c2cncc(N3CCN(c4ccc(Cl)c(Cl)c4)CC3)n2)c1` [compound 358, 4-(3,4-Dichloro-phenyl)-6′-(3,5-dimethyl-phenyl)-3,4,5,6-tetrahydro-2H-[1,2′]bipyrazinyl], for which the IC50 was in the range of 10 to 100 µM. Same read-out and setting: in the case of `Fc1ccc(-c2cncc(N3CCN(c4ccccn4)CC3)n2)cc1` [compound 305, 6′-(4-Fluoro-phenyl)-4-pyridin-2-yl-3,4,5,6-tetrahydro-2H-[1,2′]bipyrazinyl] it was 1 to 10 µM; in that of `Fc1ccc(N2CCN(c3cncc(-c4ccc(C(F)(F)F)cc4)n3)CC2)c(F)c1` [compound 210, 4-(2,4-Difluoro-phenyl)-6′-(4-trifluoromethyl-phenyl)-3,4,5,6-tetrahydro-2H-[1,2′]bipyrazinyl], 1 to 10 µM. On the same count and under the same terms, in the case of `Cc1cc(C)cc(-c2cncc(N3CCN(c4cccc(C)c4C)CC3)n2)c1` [compound 338, 4-(2,3-Dimethyl-phenyl)-6′-(3,5-dimethyl-phenyl)-3,4,5,6-tetrahydro-2H-[1,2′]bipyrazinyl] it was 10 to 100 µM. The same measure, in the same setting: in the case of `Fc1cccc(-c2cncc(N3CCN(c4ccc(F)cc4F)CC3)n2)c1` [compound 211, 4-(2,4-Difluoro-phenyl)-6′-(3-fluoro-phenyl)-3,4,5,6-tetrahydro-2H-[1,2′]bipyrazinyl] it was 10 to 100 µM; in that of `COc1cccc(-c2cncc(N3CCN(c4ccccn4)CC3)n2)c1` [compound 304, 6′-(3-Methoxy-phenyl)-4-pyridin-2-yl-3,4,5,6-tetrahydro-2H-[1,2′]bipyrazinyl], 1 to 10 µM.

Staying with this assay, now noted: inhibition of UL 97 kinase activity; class by IC50 / % inhibition at 10 or 100 μM; read-out: Activity Class [A, B, C].
`Fc1cccc(-c2cncc(N3CCN(c4ccccn4)CC3)n2)c1` [compound 56, 6′-(3-Fluoro-phenyl)-4-pyridin-2-yl-3,4,5,6-tetrahydro-2H-[1,2′]bipyrazinyl]: the IC50 lay within 10 to 100 µM.

`c1ccc(N2CCN(c3cncc(-c4cccs4)n3)CC2)nc1` [compound 31, 4-Pyridin-2-yl-6′-thiophen-2-yl-3,4,5,6-tetrahydro-2H-[1,2′]bipyrazinyl]: the IC50 fell in the range of 10 to 100 µM. As to `N#Cc1ccccc1N1CCN(c2cncc(-c3ccc(Cl)cc3)n2)CC1` [compound 42, 2-[6′-(4-Chloro-phenyl)-2,3,5,6-tetrahydro-[1,2′]bipyrazinyl-4-yl]-benzonitrile], the IC50 lay within 1 to 10 µM. On the same count and under the same terms, in the case of `COc1ccccc1N1CCN(c2cncc(-c3ccccc3C)n2)CC1` [compound 87, 4-(2-Methoxy-phenyl)-6′-o-tolyl-3,4,5,6-tetrahydro-2H-[1,2′]bipyrazinyl] it was 10 to 100 µM; in that of `Clc1ccc(-c2cncc(NCc3ccco3)n2)cc1` [compound 26, [6-(4-Chloro-phenyl)-pyrazin-2-yl]-furan-2-ylmethyl-amine], below 1 µM; in that of `CN(C)c1ccc(-c2cncc(N3CCN(c4ccccc4)CC3)n2)cc1` [compound 190, Dimethyl-[4-(4-phenyl-3,4,5,6-tetrahydro-2H-[1,2′]bipyrazinyl-6′-yl)-phenyl]-amine], 1 to 10 µM. On the same count and under the same terms, as for `Fc1ccc(-c2cncc(N3CCN(c4cccc(C(F)(F)F)c4)CC3)n2)cc1Cl` [compound 157, 6′-(3-Chloro-4-fluoro-phenyl)-4-(3-trifluoromethyl-phenyl)-3,4,5,6-tetrahydro-2H-[1,2′]bipyrazinyl], the figure is 10 to 100 µM; as for `Fc1ccc(-c2cncc(N3CCN(c4ccc(F)cc4)CC3)n2)cc1` [compound 138, 4,6′-Bis-(4-fluoro-phenyl)-3,4,5,6-tetrahydro-2H-[1,2′]bipyrazinyl], 10 to 100 µM.

`Cc1cccc(-c2cncc(N3CCN(c4cccc(C(F)(F)F)c4)CC3)n2)c1C` [compound 156, 6′-(2,3-Dimethyl-phenyl)-4-(3-trifluoromethyl-phenyl)-3,4,5,6-tetrahydro-2H-[1,2′]bipyrazinyl]: the IC50 is 10 to 100 µM.

Take `COc1ccc2cc(-c3cncc(N4CCN(c5ccccc5OC)CC4)n3)ccc2c1` [compound 187, 6′-(6-Methoxy-naphthalen-2-yl)-4-(2-methoxy-phenyl)-3,4,5,6-tetrahydro-2H-[1,2′]bipyrazinyl]: the IC50 was in the range of 10 to 100 µM. As to `c1cncc(-c2cncc(N3CCN(c4ccncc4)CC3)n2)c1` [compound 54, 4-Pyridin-4-yl-6′-pyridin-3-yl-3,4,5,6-tetrahydro-2H-[1,2′]bipyrazinyl], the IC50 lay in the range of 10 to 100 µM. Consider `Clc1cccc(N2CCN(c3cncc(-c4ccccc4)n3)CC2)c1` [compound 97, 4-(3-Chloro-phenyl)-6′-phenyl-3,4,5,6-tetrahydro-2H-[1,2′]bipyrazinyl], for which the IC50 fell in the range of 1 to 10 µM. Same read-out and setting: in the case of `COc1ccc(Cl)cc1-c1cncc(N2CCN(c3ccccc3OC)CC2)n1` [compound 91, 6′-(5-Chloro-2-methoxy-phenyl)-4-(2-methoxy-phenyl)-3,4,5,6-tetrahydro-2H-[1,2′]bipyrazinyl] it was 10 to 100 µM; in that of `c1ccc(-c2cncc(N3CCN(c4ccncc4)CC3)n2)cc1` [compound 67, 6′-Phenyl-4-pyridin-4-yl-3,4,5,6-tetrahydro-2H-[1,2′]bipyrazinyl], 1 to 10 µM. On the same count and under the same terms, as for `CC(=O)c1ccc(-c2cncc(N3CCN(c4ccccc4F)CC3)n2)cc1` [compound 130, 1-{4-[4-(2-Fluoro-phenyl)-3,4,5,6-tetrahydro-2H-[1,2′]bipyrazinyl-6′-yl]-phenyl}-ethanone], the figure is 1 to 10 µM; as for `COc1ccc(N2CCN(c3cncc(-c4cccc5ccccc45)n3)CC2)cc1OC` [compound 43, 4-(3,4-Dimethoxy-phenyl)-6′-naphthalen-1-yl-3,4,5,6-tetrahydro-2H-[1,2′]bipyrazinyl], 10 to 100 µM. Consider `Fc1ccccc1N1CCN(c2cncc(-c3ccoc3)n2)CC1` [compound 126, 4-(2-Fluoro-phenyl)-6′-furan-3-yl-3,4,5,6-tetrahydro-2H-[1,2′]bipyrazinyl], for which the IC50 lay within 1 to 10 µM. Still for that read-out and setting: as for `c1ccc2cc(-c3cncc(N4CCN(CCN5CCCC5)CC4)n3)ccc2c1` [compound 17, 6′-Naphthalen-2-yl-4-(2-pyrrolidin-1-yl-ethyl)-3,4,5,6-tetrahydro-2H-[1,2′]bipyrazinyl], the figure is below 1 µM; as for `FC(F)(F)c1ccc(-c2cncc(N3CCN(c4cccc(Cl)c4)CC3)n2)cc1` [compound 184, 4-(3-Chloro-phenyl)-6′-(4-trifluoromethyl-phenyl)-3,4,5,6-tetrahydro-2H-[1,2′]bipyrazinyl], 10 to 100 µM.
